According to patent publication US9737510B2, “Indazole compounds and a process for the preparation thereof” (Council of Scientific & Industrial Research, priority 2013, dated 2017):
In brackets after ≈: the same amount, converted by molar mass.

Key:
LTA4H = target: T1, LTA4H (Homo sapiens, UniProt P09960); assay: LTA4H inhibition; type: biochemical; details: read-out: IC50 against LTA4H
T1 sequence (P09960 1-611): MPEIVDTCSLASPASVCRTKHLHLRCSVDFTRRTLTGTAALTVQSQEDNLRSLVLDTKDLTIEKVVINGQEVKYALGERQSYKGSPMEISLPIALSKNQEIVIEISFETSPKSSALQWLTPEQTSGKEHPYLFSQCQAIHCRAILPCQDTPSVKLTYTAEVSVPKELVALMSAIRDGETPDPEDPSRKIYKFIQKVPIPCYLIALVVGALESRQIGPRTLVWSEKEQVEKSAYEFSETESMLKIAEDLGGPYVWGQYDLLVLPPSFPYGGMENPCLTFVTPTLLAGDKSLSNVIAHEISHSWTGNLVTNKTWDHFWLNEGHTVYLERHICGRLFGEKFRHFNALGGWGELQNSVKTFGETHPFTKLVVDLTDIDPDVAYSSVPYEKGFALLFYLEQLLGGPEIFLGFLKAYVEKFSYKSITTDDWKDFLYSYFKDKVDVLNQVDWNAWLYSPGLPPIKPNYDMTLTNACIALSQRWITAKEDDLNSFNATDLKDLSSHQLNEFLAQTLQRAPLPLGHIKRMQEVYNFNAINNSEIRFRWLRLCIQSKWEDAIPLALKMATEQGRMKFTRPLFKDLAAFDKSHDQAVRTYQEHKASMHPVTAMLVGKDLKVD
Protocol: NDS100178 series of compound primarily activates imidazoline receptor […]. In high glucose condition this activation leads to formation of Diacylglycerol (DAG). DAG subsequently generates Arachidonic Acids (AA) in the cell. Metabolites of AA especially epoxyeicosatrienenoic acids (EETs) and hydroxyeicosatetrenoic acids (HETEs) induce exocytosis leading to increased secretion of insulin from the cells. The other major signalling pathway that can alter the glucose/DAG induced AA pool is the leukotriene pathway, that, by metabolizing AA into different leukotrienes and not EET and HETE can suppress its insulin secretion effect. Molecules that can inhibit metabolism of AA through leukotriene pathway can maintain AA pool leading to its metabolism only through EETs and HETEs and thus can enhance increase insulin secretion. One of the major enzymes in leukotriene pathway is LTA4H hydrolase that converts LTA4 into LTB4, a AA derivative that suppresses insulin secretion. A novel finding that inhibiting LTA4H can enhance insulin secretion has been established by the inventors. NDS100178 inhibits LTA4H (IC50<500 nM) while the IC50 against LTA4H target of compound 6 from patent US20040009976 Compound: 5-Chloro-2-methyl-3-(4,5-dihydro-1-H-imidazol-2-yl)-1H-indole) is above 10 uM.

[1] = Metabolic study and intrinsic clearance in MLM; type: in vitro ADME
Metabolic study in HLM = type: in vitro ADME
CYP3A4 = CYP3A4 (Homo sapiens, UniProt P08684); assay: CYP3A4 inhibition; type: in vitro ADME
Sequence of CYP3A4 (P08684 whole entry): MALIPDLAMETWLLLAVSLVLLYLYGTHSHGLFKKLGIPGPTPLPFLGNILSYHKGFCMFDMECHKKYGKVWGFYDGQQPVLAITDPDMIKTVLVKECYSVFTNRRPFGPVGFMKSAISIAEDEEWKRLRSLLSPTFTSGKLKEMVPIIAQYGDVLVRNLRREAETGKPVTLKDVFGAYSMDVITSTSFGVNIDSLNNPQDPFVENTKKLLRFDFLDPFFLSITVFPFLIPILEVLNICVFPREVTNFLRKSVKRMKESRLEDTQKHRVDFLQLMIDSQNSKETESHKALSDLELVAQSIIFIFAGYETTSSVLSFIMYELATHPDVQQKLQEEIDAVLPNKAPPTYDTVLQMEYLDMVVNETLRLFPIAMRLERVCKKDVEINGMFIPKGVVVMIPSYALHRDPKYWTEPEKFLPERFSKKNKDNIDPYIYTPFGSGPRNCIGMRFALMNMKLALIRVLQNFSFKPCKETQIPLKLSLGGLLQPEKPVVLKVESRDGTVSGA

Kinetic solubility = type: physicochemical; details: kinetic from dmso stock
MIN6 cells = assay: Insulinotropic activity: insulin secretion from MIN6 cells (ELISA based assay); type: cell-based, mouse; details: for Insulin Secretion: standard error in bracket
Protocol: Insulinotropic activity of the NDS100178 and NDS100179 was measured by a well-optimized ELISA based Assay (Shantani Protocol #5205) described below.
Materials • MIN6Cell (source: National Center for Cell Sciences, Pune) • Mouse Insulin ELISA kit (Mercodia, 10-1247-01) • Plate Shaker (MixMatefromEppendorf) • HEPES Balanced Krebs-Ringer bicarbonate buffer (components as follows)
Method • i. Seed proliferating culture of MIN-6 cells into a 6 well plate with almost half the confluency two days before the experiment. • ii. One the day of Insulin induction experiment, the cells should become almost confluent and are in good condition. • iii. On the day of experiment, first prepare 1×KRB-HEPES buffer with 0.1% BSA (for rinse) and without BSA (for equilibration and insulin induction) as described in the materials. • iv. Prepare equilibration buffer: 1×KRB-HEPES buffer without BSA containing 3.3 mM glucose (to bring down the glucose level of all cells to the same level). For example, add 66 ul 1 M glucose stock solution to 20 ml KRB-HEPES buffer without BSA. • v. Prepare the stimulating buffer (insulin induction): 1×KRB-HEPES buffer without BSA containing the defined glucose level (in most cases, it will be 16.7 mM glucose) and the desired concentration of molecule. • vi. Pre warm all the buffers to 37° C. in the water bath (at 15 minutes). • vii. Remove media from all wells, rinse each well twice with 2 ml KRB-HEPES buffer containing 0.1% BSA. • viii. Add 2 ml of equilibration buffer in each well and incubate at 37° C. for half an hour. • ix. After the incubation add 2 ml of stimulating buffer in respective wells (properly labelled) and incubate 37° C. for 1 hour. • x. In the meanwhile, turn on the refrigerated centrifuge and set the temperature to 4° C. Take out enzyme conjugate, diluent buffer, Calibrator 0 and stripes needed (for example, two stripes for 8 samples to be run in duplicate) from Mercodia ELISA kit box (store at 4° C.) and warm up them to RT. • xi. […] Centrifuge the tubes at 600 g for 5 min. • xiii. Take out 500 ul in fresh properly labelled precooled tubes. • xiv. Now dilute the samples 1:30 in calibrator 0 i.e. add 3 ul of each sample to 87 ul of Calibrator 0 in 8 different properly labelled 0.5 ml tubes. Mix them well. • xv. Prepare 1× enzyme conjugate buffer, i.e. mix 180 ul enzyme (11×) with 1800 ul diluent buffer for ELISA of two stripes. • xvi. Add 10 ul of each sample (diluted, in duplicate) in the two adjacent wells. Be careful not to touch the bottom. • xvii. Carefully add 100 ul of Enzyme Conjugate buffer (1×) to each well and incubate on a plate shaker (eppendorf MixMate) at 800 rpm for 2 hours at 25° C. • xviii. 45 min before the incubation is over take out wash buffer, substrate TMB and Stop solution. Keep them at RT. • xix. 5 min before the incubation is over prepare 1× wash buffer (21×), i.e. 40 ml distilled water+2 ml (21×) wash buffer in a reservoir. • xx. After the incubation is over, wash each well 7 times with 350 ul wash buffer. Use a multichannel (175 ul). • xxi. After the washing add 200 uL substrate TMB solution in each well. Maintain a proper pace. • xxii. Allow to incubate for 15 min. Set the program on the plate reader, to take absorbance read at 450 nm. Add a 5 sec shake step to allow proper mixing. • xxiii. After incubation immediately add 50 ul Stop solution in each well at same pace and take absorbance read at 450 nm.
Assay conditions were kept same in all the assays. The difference in absorption-value for control experiment (no treatment with molecule) over different days is attributed to cell culture conditions. Other varying conditions are specified in the respective graphs.
[Note: If not mentioned specifically, HG=High Glucose (16.7 mM), LG=Low Glucose (3.3 mM)]

| IC50 (CYP3A4) [µM] | Structure (SMILES) | IC50 (LTA4H) [µM] | Intrinsic Clearnace MLM [1] | Metabolic Study MLM Mean % PCR* [1] [%] | Metabolic Study HLM Mean % PCR* (Metabolic study in HLM) [%] | CYP3A4 Inhibition (CYP3A4) | solubility kinetic (Kinetic solubility) [µM] | Insulin Secretion (MIN6 cells; MIN6 cells, compound 0.1 μM) | Insulin Secretion (MIN6 cells; MIN6 cells, compound 1.0 μM) | melting point [°C] | insulin secretion from MIN6 cells in high glucose conditions (MIN6 cells; 33 uM, 1 hour, high glucose (16.7 mM), three different days) | insulin secretion over control (MIN6 cells; MIN6 cells, 10 nM) | insulin secretion over control (MIN6 cells; MIN6 cells, 50 nM) | increase in insulin secretion (MIN6 cells; MIN6 cells, 100 nM) | Insulin Secretion (MIN6 cells; MIN6 cells, compound 10.0 μM) | glucose dependence of insulinotropic activity (MIN6 cells; MIN6 cells, high glucose vs lower glucose conditions) |
| --- | --- | --- | --- | --- | --- | --- | --- | --- | --- | --- | --- | --- | --- | --- | --- | --- |
|  | Cc1[nH]c2ccc(Cl)cc2c1C1=NCCN1 [Example-6 of Patent US20040009976, 5-Chloro-2-methyl-3-(4,5-dihydro-1-H-imidazol-2-yl)-1H-indole, reference compound] | > 10 | 21.3 μl/min/mg of protein | 64.83 | 99.11 | No inhibition | 196 (≈ 45.9 µg/mL) | 1.39 (0.15) ng/ml | 3.68 (2.11) ng/ml |  |  |  |  |  |  |  |
|  | Clc1ccc2[nH]nc(C3=NCCN3)c2c1 [NDS100178, 5-Chloro-3-(4,5-dihydro-1H-imidazol-2-yl)-1H-indazole] | < 0.5 | 80.8 μl/min/mg of protein | 38.84 | 79.70 | No inhibition | 214 (≈ 47.3 µg/mL) | 8.91 (1.6) ng/ml | 12.49 (1.9) ng/ml | 248 to 249 | significant increase in the insulin secretion | No significant difference over the control | No significant difference over the control | more than 100% | 35.09 (4.0) ng/ml | glucose dependent |
|  | c1ccc2c(C3=NCCN3)n[nH]c2c1 [NDS100277, 3-(4,5-dihydro-1H-imidazol-2-yl)-1H-indazole] |  |  |  |  |  |  | 11.87 (0.8) ng/ml | 14.66 (0.4) ng/ml |  |  |  |  |  | 20.96 (1.7) ng/ml |  |
|  | Cn1nc(C2=NCCN2)c2ccccc21 [NDS100278, 3-(4,5-dihydro-1H-imidazol-2-yl)-1-methyl-1H-indazole] |  |  |  |  |  |  | 12.43 (1.1) ng/ml | 10.80 (0.2) ng/ml |  |  |  |  |  | 13.16 (1.6) ng/ml |  |
|  | c1ccc2c(C3=NC4CCCCC4N3)n[nH]c2c1 (stereo not drawn) [NDS100279, 3-(3a,4,5,6,7,7a-hexahydro-1H-benzo[d]imidazol-2-yl)-1H-indazole] |  |  |  |  |  |  | 10.45 (1.6) ng/ml | 14.57 (3.0) ng/ml |  |  |  |  |  | 21.45 (0.9) ng/ml |  |
|  | Clc1ccc2[nH]nc(C3=NC4CCCCC4N3)c2c1 (stereo not drawn) [NDS100281, 5-chloro-3-(3a,4,5,6,7,7a-hexahydro-1H-benzo[d]imidazol-2-yl)-1H-indazole] |  |  |  |  |  |  | 14.73 (0.5) ng/ml | 16.91 (0.1) ng/ml |  |  |  |  |  | 20.85 (0.8) ng/ml |  |
| > 10 | CCn1nc(C2=NCCN2)c2cc(Cl)ccc21 [NDS100282, 5-Chloro-3-(4,5-dihydro-1H-imidazol-2-yl)-1-ethyl-1H-indazole] |  | 56.4 μl/min/mg of protein | 33.27 | 71.71 |  | 202 (≈ 50.1 µg/mL) | 13.02 (0.3) ng/ml | 18.73 (1.0) ng/ml |  |  |  |  |  | 33.15 (0.7) ng/ml |  |
|  | Clc1ccc2c(c1)c(C1=NCCN1)nn2Cc1ccccc1 [NDS100283, 1-Benzyl-5-chloro-3-(4,5-dihydro-1H-imidazol-2-yl)-1H-indazole] |  | 145.5 μl/min/mg of protein | 19.09 | 86.02 | No inhibition | 113 (≈ 35.2 µg/mL) | 11.35 (1.0) ng/ml | 20.08 (0.8) ng/ml |  |  |  |  |  | 50.45 (3.8) ng/ml |  |
